Source: patent US20230278972A1, “SUBSTITUTED HALOALKYL SULFONANILIDE HERBICIDES” (FMC Corporation, priority 2020, published 2023)

Key:
Format in all cases: in vivo
[1] = system: ragweed (common ragweed, Ambrosia artemisiifolia); assay: Test A preemergence, ragweed; conditions: Preemergence; for Ragweed plant response rating: 125 g ai/ha, visual injury on 0 to 100 scale (0 no effect, 100 complete control), approximately 10 days; for Plant response rating, Ragweed: 500 g ai/ha, 0 to 100 scale (0 no effect, 100 complete control)
Summary of the method: (§1)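 After sowing into a sand-amended loam, pots for the preemergence test were treated by spraying directly onto soil. In parallel, seedlings at the one- to two-leaf stage and 2 to 10 cm tall were treated postemergence with the identical surfactant-containing formulation.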

[2] = system: Ryegrass, Italian (Italian ryegrass, Lolium multiflorum); assay: Test A preemergence, Ryegrass, Italian; conditions: Preemergence; for Ryegrass, Italian plant response rating: 125 g ai/ha, visual injury on 0 to 100 scale (0 no effect, 100 complete control), approximately 10 days; for Plant response rating, Ryegrass, Italian: 500 g ai/ha, 0 to 100 scale (0 no effect, 100 complete control)
Summary of the method: as §1

kochia (Bassia scoparia) [3] = assay: Test A postemergence, kochia; conditions: Postemergence, 0 to 100 scale (0 no effect, 100 complete control); for Plant response rating, Kochia: 125 g ai/ha, visual injury approx. 10 days; for Kochia plant response rating: 500 g ai/ha, visual injury vs untreated controls after approx. 10 days
Summary of the method: as §1

[4] = system: Ryegrass, Italian (Italian ryegrass, Lolium multiflorum); assay: Test A postemergence, Ryegrass, Italian; conditions: Postemergence, 0 to 100 scale (0 no effect, 100 complete control); for Plant response rating, Ryegrass, Italian: 125 g ai/ha, visual injury approx. 10 days; for Ryegrass, Italian plant response rating: 500 g ai/ha, visual injury vs untreated controls after approx. 10 days
Summary of the method: as §1

[5] = system: Foxtail, Giant (giant foxtail, Setaria faberi); assay: Test A postemergence, Foxtail, Giant; conditions: Postemergence, 0 to 100 scale (0 no effect, 100 complete control); for Plant response rating, Foxtail, Giant: 125 g ai/ha, visual injury approx. 10 days; for Foxtail, Giant plant response rating: 500 g ai/ha, visual injury vs untreated controls after approx. 10 days
Summary of the method: as §1

corn (Zea mays) = assay: Test A postemergence, corn; conditions: Postemergence, 0 to 100 scale (0 no effect, 100 complete control); for Plant response rating, Corn: 125 g ai/ha, visual injury approx. 10 days; for Corn plant response rating: 500 g ai/ha, visual injury vs untreated controls after approx. 10 days
Summary of the method: as §1

[6] = system: galium (catchweed bedstraw, Galium aparine); assay: Test A postemergence, galium; conditions: Postemergence, 0 to 100 scale (0 no effect, 100 complete control); for Plant response rating, Galium: 125 g ai/ha, visual injury approx. 10 days; for Galium plant response rating: 500 g ai/ha, visual injury vs untreated controls after approx. 10 days
Summary of the method: (§2)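 Directed soil spray at planting gave the preemergence treatment, while foliar application to one- to two-leaf seedlings (2–10 cm) gave the postemergence one; pots held a loam and sand mixture and chemicals were carried in a non-phytotoxic solvent with surfactant.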

[7] = system: pigweed (Amaranthus retroflexus); assay: Test A preemergence, pigweed; conditions: for Pigweed plant response rating: 125 g ai/ha, visual injury on 0 to 100 scale (0 no effect, 100 complete control), approximately 10 days; for Plant response rating, Pigweed: 500 g ai/ha, 0 to 100 scale (0 no effect, 100 complete control)
Summary of the method: as §2

[8] = system: Foxtail, Giant (giant foxtail, Setaria faberi); assay: Test A preemergence, Foxtail, Giant; conditions: Preemergence; for Foxtail, Giant plant response rating: 125 g ai/ha, visual injury on 0 to 100 scale (0 no effect, 100 complete control), approximately 10 days; for Plant response rating, Foxtail, Giant: 500 g ai/ha, 0 to 100 scale (0 no effect, 100 complete control)
Summary of the method: as §1

[9] = system: barnyardgrass (Echinochloa crus-galli); assay: Test A postemergence, barnyardgrass; conditions: Postemergence, 0 to 100 scale (0 no effect, 100 complete control); for Plant response rating, Barnyardgrass: 125 g ai/ha, visual injury approx. 10 days; for Barnyardgrass plant response rating: 500 g ai/ha, visual injury vs untreated controls after approx. 10 days
Summary of the method: as §2

[10] = system: wheat (Triticum aestivum); assay: Test A postemergence, wheat; conditions: Postemergence, 0 to 100 scale (0 no effect, 100 complete control); for Plant response rating, Wheat: 125 g ai/ha, visual injury approx. 10 days; for Wheat plant response rating: 500 g ai/ha, visual injury vs untreated controls after approx. 10 days
Summary of the method: as §2

kochia (Bassia scoparia) [11] = assay: Test A preemergence, kochia; conditions: Preemergence; for Kochia plant response rating: 125 g ai/ha, visual injury on 0 to 100 scale (0 no effect, 100 complete control), approximately 10 days; for Plant response rating, Kochia: 500 g ai/ha, 0 to 100 scale (0 no effect, 100 complete control)
Summary of the method: as §1

[12] = system: ragweed (common ragweed, Ambrosia artemisiifolia); assay: Test A postemergence, ragweed; conditions: Postemergence, 0 to 100 scale (0 no effect, 100 complete control); for Plant response rating, Ragweed: 125 g ai/ha, visual injury approx. 10 days; for Ragweed plant response rating: 500 g ai/ha, visual injury vs untreated controls after approx. 10 days
Summary of the method: as §1

[13] = system: blackgrass (Alopecurus myosuroides); assay: Test A postemergence, blackgrass; conditions: Postemergence, 0 to 100 scale (0 no effect, 100 complete control); for Plant response rating, Blackgrass: 125 g ai/ha, visual injury approx. 10 days; for Blackgrass plant response rating: 500 g ai/ha, visual injury vs untreated controls after approx. 10 days
Summary of the method: as §1

[14] = system: barnyardgrass (Echinochloa crus-galli); assay: Test A preemergence, barnyardgrass; conditions: Preemergence; for Barnyardgrass plant response rating: 125 g ai/ha, visual injury on 0 to 100 scale (0 no effect, 100 complete control), approximately 10 days; for Plant response rating, Barnyardgrass: 500 g ai/ha, 0 to 100 scale (0 no effect, 100 complete control)
Summary of the method: as §1

[15] = system: pigweed (Amaranthus retroflexus); assay: Test A postemergence, pigweed; conditions: Postemergence, 0 to 100 scale (0 no effect, 100 complete control); for Plant response rating, Pigweed: 125 g ai/ha, visual injury approx. 10 days; for Pigweed plant response rating: 500 g ai/ha, visual injury vs untreated controls after approx. 10 days
Summary of the method: as §1

Compound | Ragweed plant response rating [1] | Plant response rating, Ragweed [1] | Ryegrass, Italian plant response rating [2] | Plant response rating, Ryegrass, Italian [2] | Plant response rating, Kochia (kochia (Bassia scoparia) [3]) | Kochia plant response rating (kochia (Bassia scoparia) [3]) | Plant response rating, Ryegrass, Italian [4] | Ryegrass, Italian plant response rating [4] | Plant response rating, Foxtail, Giant [5] | Foxtail, Giant plant response rating [5] | Plant response rating, Corn (corn (Zea mays)) | Corn plant response rating (corn (Zea mays)) | Plant response rating, Galium [6] | Galium plant response rating [6] | Pigweed plant response rating [7] | Plant response rating, Pigweed [7] | Foxtail, Giant plant response rating [8] | Plant response rating, Foxtail, Giant [8] | Plant response rating, Barnyardgrass [9] | Barnyardgrass plant response rating [9] | also measured
COc1cnn(C)c(=O)c1-c1cc(NS(=O)(=O)C(F)(F)F)c(C)cc1C [Compound 65] | 0 | 0 | 30 | 60 | 0 | 0 | 0 | 0 | 0 | 40 | 0 | 0 | 0 | 30 | 0 | 30 | 80 | 100 | 0 | 70 | Plant response rating, Wheat [10]: 0; Wheat plant response rating [10]: 50; Kochia plant response rating (kochia (Bassia scoparia) [11]): 0; Plant response rating, Kochia (kochia (Bassia scoparia) [11]): 60; Plant response rating, Ragweed [12]: 0; Ragweed plant response rating [12]: 0; Plant response rating, Blackgrass [13]: 0; Blackgrass plant response rating [13]: 0; Barnyardgrass plant response rating [14]: 0; Plant response rating, Barnyardgrass [14]: 90; Plant response rating, Pigweed [15]: 0; Pigweed plant response rating [15]: 0
Cc1ccc(-c2ccnn(C)c2=O)cc1N(S(=O)(=O)C(F)(F)F)S(=O)(=O)C(F)(F)F [Compound 66] | 0 | 10 | 0 | 0 | 0 | 10 | 0 | 0 | 0 | 30 | 0 | 10 | 50 | 70 | 0 | 30 | 0 | 60 | 0 | 30 | Plant response rating, Wheat [10]: 0; Wheat plant response rating [10]: 40; Kochia plant response rating (kochia (Bassia scoparia) [11]): 0; Plant response rating, Kochia (kochia (Bassia scoparia) [11]): 40; Plant response rating, Ragweed [12]: 0; Ragweed plant response rating [12]: 0; Plant response rating, Blackgrass [13]: 0; Blackgrass plant response rating [13]: 0; Barnyardgrass plant response rating [14]: 0; Plant response rating, Barnyardgrass [14]: 90; Plant response rating, Pigweed [15]: 0; Pigweed plant response rating [15]: 50
Cc1cc(C)c(N(S(=O)(=O)C(F)(F)F)S(=O)(=O)C(F)(F)F)cc1-c1cc(Br)nn(C)c1=O [Compound 67] | 0 | 60 | 80 | 90 | 10 | 40 | 0 | 60 | 10 | 70 | 0 | 0 | 50 | 60 | 50 | 80 | 90 | 100 | 0 | 40 | Plant response rating, Wheat [10]: 30; Wheat plant response rating [10]: 60; Kochia plant response rating (kochia (Bassia scoparia) [11]): 0; Plant response rating, Kochia (kochia (Bassia scoparia) [11]): 70; Plant response rating, Ragweed [12]: 0; Ragweed plant response rating [12]: 10; Plant response rating, Blackgrass [13]: 0; Blackgrass plant response rating [13]: 60; Barnyardgrass plant response rating [14]: 70; Plant response rating, Barnyardgrass [14]: 100; Plant response rating, Pigweed [15]: 30; Pigweed plant response rating [15]: 80
CCn1nc(C)cc(-c2cc(NS(=O)(=O)C(F)(F)F)c(C)cc2C)c1=O [Compound 68] | 30 | 90 | 90 | 100 | 10 | 50 | 40 | 80 | 20 | 90 | 10 | 20 | 50 | 80 | 70 | 90 | 100 | 100 | 60 | 80 | Plant response rating, Wheat [10]: 70; Wheat plant response rating [10]: 80; Kochia plant response rating (kochia (Bassia scoparia) [11]): 70; Plant response rating, Kochia (kochia (Bassia scoparia) [11]): 90; Plant response rating, Ragweed [12]: 50; Ragweed plant response rating [12]: 80; Plant response rating, Blackgrass [13]: 70; Blackgrass plant response rating [13]: 70; Barnyardgrass plant response rating [14]: 100; Plant response rating, Barnyardgrass [14]: 100; Plant response rating, Pigweed [15]: 20; Pigweed plant response rating [15]: 50
Cc1cc(C)c(-c2cc(Br)nn(C)c2=O)cc1NS(=O)(=O)C(F)(F)F [Compound 69] | 50 | 90 | 100 | 100 | 40 | 60 | 40 | 70 | 80 | 90 | 10 | 20 | 60 | 70 | 80 | 100 | 100 | 100 | 0 | 80 | Plant response rating, Wheat [10]: 60; Wheat plant response rating [10]: 70; Kochia plant response rating (kochia (Bassia scoparia) [11]): 70; Plant response rating, Kochia (kochia (Bassia scoparia) [11]): 90; Plant response rating, Ragweed [12]: 60; Ragweed plant response rating [12]: 80; Plant response rating, Blackgrass [13]: 0; Blackgrass plant response rating [13]: 50; Barnyardgrass plant response rating [14]: 40; Plant response rating, Barnyardgrass [14]: 90; Plant response rating, Pigweed [15]: 70; Pigweed plant response rating [15]: 90
